{
  "source": "patent US12606559B2",
  "about": "“JAK inhibitor compounds, methods for synthesizing same and use thereof” (GALDERMA HOLDING SA, priority 2020, dated 2026)",
  "key": {"[1]": {"tested_on": "IL-6 induced Phospho-STAT3 (Tyr705) in TF-1 cells", "experiment": "In vitro cellular pSTAT3 assay, IL-6 stimulated TF-1 cells", "type": "cell-based", "conditions": "Homo sapiens"}, "IL6 signalling in hWB": {"tested_on": "IL6 signalling in hWB", "experiment": "hWB assay, IL6", "type": "cell-based, human", "conditions": "Homo sapiens, read-out: hWB assay: IC50 IL6"}, "[2]": {"experiment": "Human skin ex vivo: flux through skin and dermis concentration (Franz cells)", "type": "in vitro ADME", "conditions": "PG/H2O cream 1 mg/mL"}, "[3]": {"experiment": "Kinetic aqueous solubility", "type": "physicochemical"}, "[4]": {"experiment": "Thermodynamic solubility PG_H2O pH 6 2/8", "type": "physicochemical", "conditions": "amorphous, no cristalline material available"}, "[5]": {"experiment": "Protein binding analysis (RED), human plasma", "type": "in vitro ADME", "conditions": "5 μM, RED 4 h", "method": "(§1) The protein binding was assessed in plasma of Human, male balb-c mice, male Wistar Han rat, male Gottingen minipig by rapid equilibrium dialysis (RED) devices. After the plasma and buffer phosphate 50 mM pH7.4 were equilibrated at 37° C., the compound was added to plasma to reach a final concentration of 5 μM. An aliquot of plasma was withdrawn immediately. Equilibration under mild agitation was continued for 4 h. The plasma and buffer were sampled and samples were quenched with 4 volumes of acetonitrile and centrifuged. Supernatant was quantified in HPLC/MS/MS to calculate the recovery and the percentage of compound dissolved in the buffer (unbound) and bound to plasma proteins."}, "[6]": {"experiment": "Protein binding analysis (RED), rat plasma", "type": "in vitro ADME, male Wistar Han rat", "conditions": "5 μM, RED 4 h", "method": "as §1"}, "[7]": {"experiment": "Protein binding analysis (RED), mouse plasma", "type": "in vitro ADME, male balb-c mice", "conditions": "5 μM, RED 4 h", "method": "as §1"}, "[8]": {"experiment": "Intrinsic clearance in human hepatocytes", "type": "in vitro ADME", "conditions": "2.5 μM", "method": "(§2) The intrinsic clearance was assessed in cryopreserved Hepatocytes obtained by Human livers donors of mix gender pooled together, male balb-c mouse, male Wistar Han rats and male Göttingen minipig, by looking at the parent compound disappearance. The incubations were performed using a final concentration of viable cells of 1 million/ml (viability above 70%) and test item of 2.5 μM. Incubations were followed up to 2 h. Aliquotes were withdrawn at different time points and reaction quenched with acetonitrile. After centrifugation the supernatant was analyzed by HPLC/MS to quantify the remaining amount of parent in comparison with time 0. The clearance was calculated by fitting the log of the percentage remaining with Graphpad Prism ver.7."}, "[9]": {"experiment": "Intrinsic clearance in rat hepatocytes", "type": "in vitro ADME, male Wistar Han rats", "conditions": "2.5 μM", "method": "as §2"}, "[10]": {"experiment": "Intrinsic clearance in mouse hepatocytes", "type": "in vitro ADME, male balb-c mouse", "conditions": "2.5 μM", "method": "as §2"}, "[11]": {"experiment": "Intrinsic clearance in minipig hepatocytes", "type": "in vitro ADME, male Göttingen minipig", "conditions": "2.5 μM", "method": "as §2"}, "[12]": {"experiment": "In vivo pharmacokinetic analysis in rat, iv", "parameters": "species or system male Wistar Han rat", "conditions": "iv 1 mg/kg", "method": "One male Wistar Han rat. Compound was administered intravenously to fed animal at a target dose of 1 mg/kg, dose volume: 2 mL/kg, in DMSO/hydroxypropyl-beta-cyclodextrin 20% in phosphate buffer 60 mM pH 7 (5:95). Blood samples were collected at various time points. Blood samples were then assayed using a method based upon protein precipitation with acetonitrile followed by LC/MS/MS analysis. Non-compartmental methods were used for pharmacokinetic analysis of blood concentration versus time data"}, "[13]": {"experiment": "In vivo pharmacokinetic analysis in minipig, iv", "parameters": "species or system male Göttingen minipigs", "conditions": "iv 1 mg/kg", "method": "Three male Göttingen minipigs. Compound was administered intravenously to fed animals at a target dose of 1 mg/kg, dose volume 1 mL/kg, in DMSO: hydroxypropyl-β-cyclodextrin 20% in phosphate buffer 60 mM pH 7 (5:95). Blood samples were collected at various time points. Blood samples were then assayed using a method based upon protein precipitation with acetonitrile followed by LC/MS/MS analysis. Non-compartmental methods were used for pharmacokinetic analysis of blood concentration versus time data."}, "[14]": {"tested_on": "44 targets (binding and enzyme/uptake assays)", "experiment": "CEREP Safety Screen-44", "conditions": "10 μM", "method": "An in vitro pharmacology assay was conducted to assess the capability of the compounds to interact with different pharmacological targets when tested at 10 μM in different binding and enzyme/uptake assays. The included targets are indicative of potential effects in major organs and drug-drug interactions.\nCompound binding was calculated as a % inhibition of the binding of a radioactively labelled ligand specific for each target. […] […]."}, "[15]": {"experiment": "Systemic level in PD/IL6 mouse topical dose response", "conditions": "topical 10 mM, PG/Acetone/Transcutol"}},
  "note": "“Also recorded” adds a separate entry of the source. Like-named read-outs stand apart in the source and are kept apart here.",
  "data": [
    {"smiles": "N#CC[C@H](C1CCCC1)n1cc(-c2ncnc3[nH]ccc23)cn1", "note": "[Ruxolitinib, reference compound]", "values": [
      {"measurement": "IC50", "setting": "[1]; TF-1, read-out: Cellular Assay: IC50 IL6", "result": 8, "unit": "nM"},
      {"measurement": "IC50", "setting": "[1]; TF-1, read-out: Free IC50", "result": 200, "unit": "nM"},
      {"measurement": "IC50", "setting": "IL6 signalling in hWB", "result": 6900, "unit": "nM"},
      {"measurement": "measured flux 6-24 hr", "setting": "[2]", "result": 5.3, "unit": "ng/cm^2/hr"},
      {"measurement": "Kinetic aq sol", "setting": "[3]", "result": "232/ND (no cristalline microM"},
      {"measurement": "Sol PG_H2O pH 6 2/8, amorphous material", "setting": "[4]", "result": "material available-1 mM; also recorded: (0.3 mg/mL)-amorphous)"},
      {"measurement": "hFU", "setting": "[5]", "result": 4, "unit": "%"},
      {"measurement": "rFU", "setting": "[6]", "result": 13, "unit": "%"},
      {"measurement": "mFU", "setting": "[7]", "result": 7.7, "unit": "%"},
      {"measurement": "Intr. Clear. h heps", "setting": "[8]", "result": 4.4, "unit": "microL/min/10 6 cells"},
      {"measurement": "Intr. Clear. rheps", "setting": "[9]", "result": 300, "unit": "microL/min/10 6 cells"},
      {"measurement": "Intr. Clear. mheps", "setting": "[10]", "result": 150, "unit": "microL/min/10 6 cells"},
      {"measurement": "Intr. Clear. minipig heps", "setting": "[11]", "result": 141, "unit": "microL/min/10 6 cells"},
      {"measurement": "iv PK rat: Cl (value in brackets, %)", "setting": "[12]", "result": 51, "unit": "%"},
      {"measurement": "iv PK minipig: Cl (value in brackets, %)", "setting": "[13]", "result": 68, "unit": "%"},
      {"measurement": "Safety panel (Cerep): 44 targets % inh @ 10 microM, Nb of targets > 50% inh", "setting": "[14]", "result": "0/44"},
      {"measurement": "PD/IL6 mouse top DR 0.01-10 mM: Systemic level @ 10 mM - 2 hrs", "setting": "[15]", "result": 81, "unit": "nM"}
    ]}
  ]
}
